# Measurements: patent US20210353749A1, “GUANABENZ AS AN ADJUVANT FOR IMMUNOTHERAPY” (UNIVERSITÉ CATHOLIQUE DE LOUVAIN, priority 2018, published 2021)
# Columns and labels:
# [1] = test system: Mouse TCRP1A CD8+ T cells; assay: CD107 cytotoxicity assay (degranulation assay), mouse T cells; type: cell-based; conditions: alprenolol 5 μM or 20 μM, 16 hours, vs control (PBS); FIG. 11A
# Procedure: Mouse TCRP1A CD8^+ T cells: P1A-specific (TCRP1A) CD8^+ T cells were isolated from spleens and lymph nodes of TCRP1A mice using anti-mouse CD8a (Ly-2) MicroBeads (Miltenyi Biotec).
# CD107 cytotoxicity assay (Degranulation assay): TCRP1A CD8^+ T cells were plated at 50,000 cells per well in a 96 U plate with different concentrations of guanabenz and incubated at 37° C. overnight prior to their use in the assay on the next day. On the day of the assay, the culture supernatant was removed from the cells and the cells were washed once with complete medium to remove the drug. The target cells L1210-P1A-B7.1 were added to the wells at a ratio of 1:1. Control wells containing either only T cells or target cells were also included for each plate. CD107a-APC was added to each well at the same time as addition of the target cells. The plate was then incubated at 37° C. for 90 minutes. At the end of the incubation period the cells were harvested and washed once with PBS. They were stained with anti-mouse CD8-Bv421 antibody for 15 minutes. The cells were then washed and resuspended in PBS and analyzed using FACS Fortessa flow cytometer. Human CD8^+ T cell degranulation was evaluated in a similar way. To induce CD8^+ T cell degranulation, T2 cells loaded with synthetic WT1126-134 peptide (10^6 T2 cells were incubated for 1 hour in 200 μL Optimem medium with 100 μmol/L synthetic peptide at 37° C.) were used as target cells.
# (§1) T cells were incubated with guanabenz (10, 20, or 40 μM) for 16 h to 24 h as indicated. Mice received a daily intra-peritoneal injection of guanabenz (5 mg/kg) or vehicle (PBS) from the day of randomization (and the day of ACT when applicable) until the day of sacrifice.
# CD107 cytotoxicity assay (Degranulation assay): the assay was carried out as described hereinabove (see Example 1) with different 20 μM guanabenz or different concentrations of alprenolol or sunitinib, as indicated.
# T cells were incubated with 20 μM guanabenz for 16 h as indicated.
# T cells were incubated with alprenolol (5 or 20 μM) for 16 h as indicated. […]
# TiRP tumor = assay: TiRP melanoma model with adoptive cell transfer of activated P1A-specific CD8+ T cells; type: in vivo, mouse; conditions: alprenolol 5 mg/kg i.p. daily with ACT
# From the text: TiRP mice: TiRP mice have been created by crossing Ink4a/Arf^flox/flox mice with mice carrying a transgenic construct controlled by the tyrosinase promoter and driving the expression of H-Ras^12V and Trap1a which encodes a MAGE-type tumor antigen P1A; the promoter is separated from the coding region by a stop cassette made of a floxed self-deleting CreER (Huijbers et al., 2006, Cancer Res 66, 3278-3286). Those mice were backcrossed to a B10.D2 background and bred to homozygosity. TCRP1A mice heterozygous for the H-2Ld/P1A35-43-specific TCR transgene were kept on the B10.D2; Rag1^−/− background (Shanker et al., 2004, J Immunol 172, 5069-5077). All mice used in this study were produced under specific pathogen free (SPF) conditions at the animal facility of the Ludwig Institute for Cancer Research. All the rules concerning animal welfare have been respected according to the 2010/63/EU Directive. All procedures were performed with the approval of the local Animal Ethical Committee, with reference 2015/UCL/MD/15.
# A fresh solution of 40H-Tamoxifen was prepared by dissolving 40H-Tamoxifen (Imaginechem) in 100% ethanol and mineral oil (ratio 1:9) followed by 30-min sonication, and injected subcutaneously (2 mg/200 μL per mouse) in the neck area of gender-matched 7 weeks old TiRP mice. Tumor appearance was monitored daily and tumors were measured three times/week. Tumor volume (in mm^3) was calculated by the following formula: Volume=width^2×length/2. Tumor-bearing TiRP mice were randomized based on the tumor size when average volume was 400 mm^3, 500 mm^3 or 1000 mm^3 as indicated.
# as §1
# For the adoptive cell transfer (ACT), P1A-specific (TCRP1A) CD8^+ T cells were isolated from spleens and lymph nodes of TCRP1A mice as described hereinabove, and stimulated in vitro by co-culture with irradiated (10.000 rads) L1210-P1A-B7.1 cells (Gajewski et al., 1995, J Immunol 154, 5637-5648) at 1:2 ratio (0.5×10^5 CD8^+ T cells and 10^5 L1210-P1A-B7.1 cells per well in 48-well plates) in IMDM (GIBCO) containing 10% fetal bovine serum supplemented with L-arginine (0.55 mM, Merck), L-asparagine (0.24 mM, Merck), glutamine (1.5 mM, Merck), betamercaptoethanol (50 μM, Sigma), 50 UmL^−1 penicillin and […] (Life Technologies). Four days later, TCRP1A CD8^+ T cells were purified on a Lymphoprep gradient (StemCell) and 10^7 living cells were injected intravenously in 200 μL PBS in TiRP-tumor bearing mice on the day of randomization.
# Mice received a daily intra-peritoneal injection of alprenolol (5 mg/kg) or vehicle (PBS) from the day of ACT until the day of sacrifice.
# T cells were incubated with sunitinib (0.1, 0.3, 0.8, 2.5 or 4 μM) for 16 h as indicated. Mice received a daily dose of sunitinib (20 mg/kg) or vehicle (PBS) by oral gavage from the day of ACT until the day of sacrifice.
compound,measurement,setting,value
C=CCc1ccccc1OCC(O)CNC(C)C (stereo not drawn) [alprenolol],T cell degranulation (FACS detection of CD107a),[1],did no significantly increase
same,tumor infiltration of CD8+ T cells (tetramer+ CD8+ T cells among total CD45+ cells),"TiRP tumor; 7 days after ACT, FIG. 11C",not increased
same,tumor growth,"TiRP tumor; day 0 to day 10, vs ACT alone, FIG. 11B",not significantly decreased
